Assay results reported in patent publication US7288573B2, “Method of repelling insects” (priority 2001, dated 2007).
“And” between values parts separate entries of the source, which are not always exact repeats. Equal values may be shown once. “Also recorded” adds a separate entry of the source.

Columns and labels:
Aedes aegypti = experiment: Mosquito repellency of 2-undecanone versus DEET and Citronella in mineral oil (Example 9); type: in vivo; settings: for Percent Efficacy Post-Treatment / NP, Mean / Percent (percent of mosquitoes responding, landings on the treated hand/arm) / NP / number of bites recorded / observed repellent activity (words): 20% in mineral oil; for NP: single replicates; for observed repellent activity (words): observed 0 to 12 hours
Text: Cages. Two mosquitoes cages were used for this experiment. The cages were constructed using wood framing and fine mesh wire screen. The dimensions of each cage were 59 cm high×55 cm wide by 59 cm deep. A hinged access door was installed at the front of each chamber for insertion of the water-filled containers filled with mosquito larvae. Also present at the front of each chamber was a 9 cm (I.D.) diameter plastic tube for insertion of the arm of the investigator. The arm insertion tube was sealed with a rubber stopper when not in use.
Mosquitoes and Mosquito Rearing. Mosquitoes (Aedes aegypti) were obtained as eggs from Dr. Gary Benzon (Benzon Research, Inc., Carlisle, Pa. 17013, USA) and allowed to hatch at three successive intervals so as to provide a continuing long-term supply of fresh insects. Following their arrival, the egg rafts were divided into approximately equal numbers in multiple water-filled containers within the test chambers, which also served as emergence cages. Following hatching, the larval cultures were fed with insect rearing compound supplied by United States Department of Agriculture, Gainesville, Fla., USA, courtesy of a person The water in the breeding chambers was changed regularly at two or three day intervals by filtration to minimize contamination and prevent overcrowding. Mosquitoes were bred throughout the 3-week study period in order to maintain a continuing supply of fresh insects (see below) and build up the population, usually exceeding 100 insects per cage.
Test Compounds and Testing Schedule. Testing was done with the mineral oil formulation of 2-undecanone for repellent activity by treating one arm of the investigator with approximately 1 ml of the test formulation. To avoid excessive bites and development of severe allergic reactions from multiple mosquito bites, treatments were applied to removable strips of cotton cloth taped to all parts of the investigator's hand and arm. Treatments were applied in a separate room, far from the mosquito cages. Following several minutes for the oil to soak in place, the cloth strips saturated with the treatment solution was attached to the investigator's wrist. Then, the treated arm was inserted through the insertion tube for 5 minutes. The other arm was treated with mineral oil (control) or a different compound and inserted into the insertion tube of the adjacent chamber. Next, the behavior of the mosquitoes in response to the presence of the investigator's arms was noted. Mosquito behavior was recorded as 1) landing or attempting to land on the investigator's hand or arm; 2) biting and sucking blood; or 3) dispersal away from the treated hand and arm towards the opposite ends of the cage. The approximate number of mosquitoes present in the cage at the beginning of each observation was noted. Treatments were alternated between the different cages. Each observation was repeated 3 times.
2-undecanone, DEET and Citronella arrived as liquids mixed in mineral oil in sealed plastic vials. To prepare the compounds for testing, the stocks were shaken vigorously to thoroughly mix the compounds in the mineral oil carrier, the vials opened and 1 ml samples applied directly as described above.
Observations. Mosquitoes were recorded as 1) repelled if they dispersed away from the treated hand/arm, changed course while in flight after approaching the treated hand/arm, touched the treated hand/arm and quickly withdrew; versus 2) not repelled if they landed on the treated hand/arm and remained on the cloth or skin of the investigator, or bit the investigator and sucked blood. The number of bites during the exposure period also was recorded.
[…] Efficacy was calculated according to the formula: Efficacy=[(no.landings/no.present in control)−(no.landings/no. present in experimental) divided by (no.landings/no.present in control)]×100.

Culex spp. = experiment: Mosquito repellency of 2-undecanone, treated arm in cage (Example 5); type: in vivo; settings: for No. landings: single replicates; for observed mosquito behavior / repellent effect (words): observed at 0, 3 and 6 hours
Text: Two mosquitoes cages were constructed using wood framing and fine mesh wire screen. The dimensions of each cage were 59 cm high×55 cm wide×59 cm deep. A hinged access door was installed at the front of each chamber for insertion of the water-filled containers filled with mosquito pupae. Also present at the front of each chamber was a 9 cm diameter plastic tube (i.d.) for insertion of the arm of the investigator. The arm insertion tube was sealed with a rubber stopper when not in use.
Mosquitoes (Culex spp.) were obtained (as pupae) from Carolina Biological Supply Co., Burlington, N.C., USA. Following their arrival, the mosquitoes were divided into approximately equal numbers in two water-filled containers and placed in the two cages described above. Some of the mosquitoes had hatched upon arrival.
Testing was done with 2-undecanone for repellent activity by treating one arm of the investigator with approximately 1 ml of the test solution. Following several minutes for solvent evaporation, the treated arm was inserted through the insertion tube for 5 minutes. The other arm was treated with ethanol (control) or a different concentration of 2-undecanone, and inserted into the insertion tube of the adjacent chamber. Next, the behavior of the mosquitoes in response to the presence of the investigator's arms was noted. Mosquito behavior was recorded as 1) landing or attempting to land on the investigator's arm, versus 2) dispersal away from the treated arm towards the opposite ends of the cage. The approximate number of mosquitoes present at the beginning of the observations was noted. The observations were repeated (without re-treatment of the investigator's hand and arm) after 3 hours and again after 6 hours. Treatments were alternated between the different cages. Each observation was repeated 3 times. Tests were done with 20%, 5%, 2%, 0.5% 2-undecanone, 20% DEET, and the ethanol control.
With one exception, none of the mosquitoes succeeded in biting, although mosquitoes that landed on the investigator's arm were dislodged by flicking the arm or hand. In most cases, any physical movement of the hand or arm will induce the mosquito to leave. Thus, few if any bites were expected. Landings on the arm were considered as evidence of attraction, with intent to bite.

[1] = 0.5% on arm, 6 hours after treatment
[2] = 2% on arm, 6 hours after treatment
[3] = 5% on arm, 0 hours after treatment
[4] = 5% on arm, 3 hours after treatment
[5] = 5% on arm, 6 hours after treatment
[6] = 20% on arm, 0 hours after treatment
[7] = 20% on arm, 3 hours after treatment
[8] = 20% on arm, 6 hours after treatment

CCCCCCCCCC(C)=O [2-undecanone]
residual activity (Aedes aegypti; 1% concentration): none after 3 hours
duration of residual activity (Aedes aegypti; 5% level): up to 12 hours
duration of residual efficacy (Aedes aegypti; 20% concentration in mineral oil): up to 12 hours
Percent Efficacy Post-Treatment (Aedes aegypti; 0 hours): 96.5%
NP, Mean (Aedes aegypti; 0 hours after treatment): 2.3
Percent (percent of mosquitoes responding, landings on the treated hand/arm) (Aedes aegypti; 0 hours after treatment): 2.0%
NP (Aedes aegypti; 0 hours after treatment): 2 (3×) and 0 and 3 and 5
Percent Efficacy Post-Treatment (Aedes aegypti; 3 hours): 90.1%
NP, Mean (Aedes aegypti; 3 hours after treatment): 3.7
Percent (percent of mosquitoes responding, landings on the treated hand/arm) (Aedes aegypti; 3 hours after treatment): 5.0%
NP (Aedes aegypti; 3 hours after treatment): 1 and 6 and 4
Percent Efficacy Post-Treatment (Aedes aegypti; 6 hours): 78.5%
NP, Mean (Aedes aegypti; 6 hours after treatment): 24.7
Percent (percent of mosquitoes responding, landings on the treated hand/arm) (Aedes aegypti; 6 hours after treatment): 14.7%
NP (Aedes aegypti; 6 hours after treatment): 24 and 21 and 29
Percent Efficacy Post-Treatment (Aedes aegypti; 9 hours): 81.5%
NP, Mean (Aedes aegypti; 9 hours after treatment): 4.7
Percent (percent of mosquitoes responding, landings on the treated hand/arm) (Aedes aegypti; 9 hours after treatment): 11.8%
NP (Aedes aegypti; 9 hours after treatment): 6 and 1 and 7
Percent Efficacy Post-Treatment (Aedes aegypti; 12 hours): 78.4%
number of bites recorded (Aedes aegypti; 12 hours): 4
NP, Mean (Aedes aegypti; 12 hours after treatment): 7.7
Percent (percent of mosquitoes responding, landings on the treated hand/arm) (Aedes aegypti; 12 hours after treatment): 12.2%
NP (Aedes aegypti; 12 hours after treatment): 4 and 8 and 11
observed repellent activity (words) (Aedes aegypti): exceeding the efficacy of DEET (20%) and Citronella; also recorded: strong repellent activity
observed repellent activity (words) (Aedes aegypti; listed as 2-Undecanone): Comments: The 2-undecanone formulation was highly repellent. At zero hours, all; also recorded: No bites were observed until 12 hours
number of bites recorded (Aedes aegypti; zero hours): None attempted to feed
No. landings, Mean (Culex spp.; 0.5% on arm, 0 hours after treatment): 0.7
No. landings, Mean (Culex spp.; 0.5% on arm, 3 hours after treatment): 0.7
No. landings, Mean (Culex spp.; [1]): 0.3
No. landings (Culex spp.; [1]): 0 (2×) and 1
observed mosquito behavior / repellent effect (words) (Culex spp.; 0.5% on arm): no differences between the treated arm and the ethanol controls were observed
observed mosquito behavior / repellent effect (words) (Culex spp.; 0.5% on arm, listed as Undecanone): throughout the cage. No obvious avoidance, no dispersal away from
No. landings, Mean (Culex spp.; 2% on arm, 0 hours after treatment): 0.7
No. landings, Mean (Culex spp.; 2% on arm, 3 hours after treatment): 1.0
No. landings, Mean (Culex spp.; [2]): 0.7
No. landings (Culex spp.; [2]): 1 (2×) and 0
observed mosquito behavior / repellent effect (words) (Culex spp.; 2% on arm): at three hours after treatment, there was no effect
No. landings, Mean (Culex spp.; [3]): 0
No. landings (Culex spp.; [3]): 0
No. landings, Mean (Culex spp.; [4]): 0
No. landings (Culex spp.; [4]): 0
No. landings, Mean (Culex spp.; [5]): 1.0
No. landings (Culex spp.; [5]): 1
observed mosquito behavior / repellent effect (words) (Culex spp.; 5% on arm): immediate and obvious repellent behavior; also recorded: The effect was absent after 6 hours
observed mosquito behavior / repellent effect (words) (Culex spp.; 5% on arm, listed as Undecanone): Comments: The formulation was highly repellent. Mosquitoes
No. landings, Mean (Culex spp.; [6]): 0
No. landings (Culex spp.; [6]): 0
No. landings, Mean (Culex spp.; [7]): 0
No. landings (Culex spp.; [7]): 0
No. landings, Mean (Culex spp.; [8]): 0
No. landings (Culex spp.; [8]): 0
observed mosquito behavior / repellent effect (words) (Culex spp.; 20% on arm): the effect was lost after 6 hours
concentrations with the strongest repellent effect (Culex spp.; tested at 20%, 5%, 2%, 0.5%): strongest effect at the 5% and 20% concentrations

CCN(CC)C(=O)c1cccc(C)c1 [DEET, N,N-diethyl-meta-toluamide, reference compound]
Percent Efficacy Post-Treatment (Aedes aegypti; 0 hours): 96.0%
NP, Mean (Aedes aegypti; 0 hours after treatment): 2.0
Percent (percent of mosquitoes responding, landings on the treated hand/arm) (Aedes aegypti; 0 hours after treatment): 2.3%
NP (Aedes aegypti; 0 hours after treatment): 3 (2×) and 1 (2×)
Percent Efficacy Post-Treatment (Aedes aegypti; 3 hours): 73.9%
NP, Mean (Aedes aegypti; 3 hours after treatment): 18.7
Percent (percent of mosquitoes responding, landings on the treated hand/arm) (Aedes aegypti; 3 hours after treatment): 13.1%
NP (Aedes aegypti; 3 hours after treatment): 22 and 11 and 23
Percent Efficacy Post-Treatment (Aedes aegypti; 6 hours): 75.9%
NP, Mean (Aedes aegypti; 6 hours after treatment): 21.7
Percent (percent of mosquitoes responding, landings on the treated hand/arm) (Aedes aegypti; 6 hours after treatment): 16.5%
NP (Aedes aegypti; 6 hours after treatment): 31 and 21 and 13
Percent Efficacy Post-Treatment (Aedes aegypti; 9 hours): 85.3%
number of bites recorded (Aedes aegypti; 9 hours (later intervals)): 2
NP, Mean (Aedes aegypti; 9 hours after treatment): 7.3
Percent (percent of mosquitoes responding, landings on the treated hand/arm) (Aedes aegypti; 9 hours after treatment): 9.4%
NP (Aedes aegypti; 9 hours after treatment): 11 and 7 and 4
Percent Efficacy Post-Treatment (Aedes aegypti; 12 hours): 71.3%
number of bites recorded (Aedes aegypti; 12 hours): 22
NP, Mean (Aedes aegypti; 12 hours after treatment): 28.7
Percent (percent of mosquitoes responding, landings on the treated hand/arm) (Aedes aegypti; 12 hours after treatment): 16.2%
NP (Aedes aegypti; 12 hours after treatment): 16 and 37 and 33
observed repellent activity (words) (Aedes aegypti): strong repellent activity, similar to that observed for 2-undecanone
number of bites recorded (Aedes aegypti; zero hours): one
No. landings, Mean (Culex spp.; [6]): 0
No. landings (Culex spp.; [6]): 0
No. landings, Mean (Culex spp.; [7]): 0
No. landings (Culex spp.; [7]): 0
No. landings, Mean (Culex spp.; [8]): 0.3
No. landings (Culex spp.; [8]): 1 and 0 (2×)
observed mosquito behavior / repellent effect (words) (Culex spp.; 20% on arm): The effect persisted after 3 hours, but was largely lost after 6 hours
